This is an account of results in patent US20250163038A1, “CBL-B MODULATORS AND USES THEREOF” (Nimbus Clio, Inc., priority 2021, published 2025).

As a reminder, the IC50 is the point on the concentration scale where inhibition reaches its midpoint.

For one test, the target named is Recombinant human Cbl-b (aa 36-427) (Homo sapiens, UniProt Q13191). In words: Cbl-b Biochemical Assay (TR-FRET). The settings on record: read-out: TR-FRET hCbl-b IC50. (Time-resolved FRET reads energy transfer from a long-lived donor to a nearby acceptor.)
Recombinant human Cbl-b (aa 36-427), sequence (Q13191 36-427): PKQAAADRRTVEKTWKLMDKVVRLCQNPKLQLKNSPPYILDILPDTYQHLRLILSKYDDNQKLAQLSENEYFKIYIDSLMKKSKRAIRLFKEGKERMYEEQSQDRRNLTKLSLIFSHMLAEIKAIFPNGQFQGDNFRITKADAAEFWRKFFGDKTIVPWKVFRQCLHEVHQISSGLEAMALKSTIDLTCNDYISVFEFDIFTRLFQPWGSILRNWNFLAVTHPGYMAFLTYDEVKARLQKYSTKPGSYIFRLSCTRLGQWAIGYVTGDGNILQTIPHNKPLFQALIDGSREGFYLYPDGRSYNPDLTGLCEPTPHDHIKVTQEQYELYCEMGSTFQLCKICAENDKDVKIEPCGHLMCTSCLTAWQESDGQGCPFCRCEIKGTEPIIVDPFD
`CC(Cc1nncn1C)c1cccc(-c2nc3ccc(C(=O)N4CCN(C)CC4)c(C(F)(F)F)c3[nH]2)c1` (racemic) [AY-5, (2-(3-(1-(4-Methyl-4H-1,2,4-triazol-3-yl)propan-2-yl)phenyl)-7-(trifluoromethyl)-1H-benzo[d]imidazol-6-yl)(4-methylpiperazin-1-yl)methanone]: the IC50 was in the range of 10 to 50 µM.
For `C=Cc1cc(C(F)(F)F)c2oc(-c3cccc(-c4ccc(F)cc4-c4nncn4C)c3)nc2c1` (racemic) [DL-1, 2-(4′-Fluoro-2′-(4-methyl-4H-1,2,4-triazol-3-yl)-[1,1′-biphenyl]-3-yl)-7-(trifluoromethyl)-5-vinylbenzo[d]oxazole], the IC50 was in the range of 0.2 to 1 µM.
For the compound `CCNc1cc(-c2c(-c3nncn3C)cnn2C)cc(-c2nc3cc(CN4CCC5(CC5)C4)cc(C(F)(F)F)c3o2)n1` [AAC-5, 6-(5-{5-Azaspiro[2.4]heptan-5-ylmethyl}-7-(trifluoromethyl)-1,3-benzoxazol-2-yl)-N-ethyl-4-[2-methyl-4-(4-methyl-1,2,4-triazol-3-yl)pyrazol-3-yl]pyridin-2-amine], the IC50 fell in the range of 1 to 10 µM.
Consider `C[C@@H]1CCCN(Cc2cc(C(F)(F)F)c3[nH]c(-c4cccc(-c5ccccc5-c5nncn5C)c4)nc3c2)C1` [AAJ-1, 2-[2′-(4-Methyl-1,2,4-triazol-3-yl)-[1,1′-biphenyl]-3-yl]-6-{[(3R)-3-methylpiperidin-1-yl]methyl}-4-(trifluoromethyl)-3H-1,3-benzodiazole], for which the IC50 fell in the range of 1 to 10 µM.
On to `Cn1cnnc1CC1(c2cccc(-c3nc4cc(Br)cc(C(F)(F)F)c4o3)c2)COC1` [AAK-1, 5-Bromo-2-(3-(3-((4-methyl-4H-1,2,4-triazol-3-yl)methyl)oxetan-3-yl)phenyl)-7-(trifluoromethyl)benzo[d]oxazole], for which the IC50 was in the range of 0.2 to 1 µM.
In the case of `Cn1cnnc1CC1(c2cccc(-c3nc4cc(Br)cc(C(F)(F)F)c4[nH]3)c2)COC1` [ABE-2, 5-Bromo-2-(3-(3-((4-methyl-4H-1,2,4-triazol-3-yl)methyl)oxetan-3-yl)phenyl)-7-(trifluoromethyl)-1H-benzo[d]imidazole], the IC50 fell in the range of 10 to 50 µM.
For the compound `Cn1cnnc1CC1(c2cccc(-c3nc4c(C(F)(F)F)cccc4s3)c2)COC1` [ABF-4, 2-(3-[3-[(4-Methyl-1,2,4-triazol-3-yl)methyl]oxetan-3-yl]phenyl)-4-(trifluoromethyl)-1,3-benzothiazole], the IC50 fell in the range of 10 to 50 µM.
For `Cn1cnnc1CC1(c2cccc(-c3nc4cccc(C5CC5)c4[nH]3)c2)COC1` [ABG-3, 7-Cyclopropyl-2-(3-(3-((4-methyl-4H-1,2,4-triazol-3-yl)methyl)oxetan-3-yl)phenyl)-1H-benzo[d]imidazole], the IC50 fell in the range of 10 to 50 µM.
Consider `Cn1cnnc1CCc1cccc(-c2nc3cccc(C(F)(F)F)n3n2)c1` [ABI-7, 2-(3-(2-(4-Methyl-4H-1,2,4-triazol-3-yl)ethyl)phenyl)-5-(trifluoromethyl)-[1,2,4]triazolo[1,5-a]pyridine], for which the IC50 fell in the range of 10 to 50 µM.
For the compound `Cn1cnnc1CC1(c2cccc(-c3nc4cccc(Cl)c4[nH]3)c2)COC1` [ABM-2, 7-Chloro-2-(3-(3-((4-methyl-4H-1,2,4-triazol-3-yl)methyl)oxetan-3-yl)phenyl)-1H-benzo[d]imidazole], the IC50 is 10 to 50 µM.
Turning to `Cn1cnnc1-c1cnn(C)c1-c1cccc(-c2nc3cccc(C(F)(F)F)n3n2)c1` [ABN-2, 4-Methyl-3-(1-methyl-5-{3-[5-(trifluoromethyl)-[1,2,4]triazolo[1,5-a]pyridin-2-yl]phenyl}pyrazol-4-yl)-1,2,4-triazole], the IC50 fell in the range of 10 to 50 µM.
For `Cn1cnnc1CC1(c2cccc(-c3nc4cccc(Br)c4[nH]3)c2)COC1` [ABP-2, 4-Bromo-2-(3-[3-[(4-methyl-1,2,4-triazol-3-yl)methyl]oxetan-3-yl]phenyl)-1H-1,3-benzodiazole], the IC50 is 10 to 50 µM.
Consider `Cn1cnnc1CC1(c2cccc(-c3nc4cccc(OC(F)(F)F)c4[nH]3)c2)COC1` [ABQ-2, 2-(3-(3-((4-Methyl-4H-1,2,4-triazol-3-yl)methyl)oxetan-3-yl)phenyl)-7-(trifluoromethoxy)-1H-benzo[d]imidazole], for which the IC50 lay in the range of 10 to 50 µM.
On the same count and under the same terms, to `Cn1cnnc1-c1ccccc1-c1cccc(-c2nc3cccc(C(F)(F)F)c3[nH]2)c1` [ABW-1, 2-(2′-(4-Methyl-4H-1,2,4-triazol-3-yl)-[1,1′-biphenyl]-3-yl)-7-(trifluoromethyl)-1H-benzo[d]imidazole] belongs 10 to 50 µM.
Same read-out and setting: the figure for `Cn1cnnc1CC1(c2cccc(-c3nc4cc(C(=O)Nc5nccn5C)cc(C(F)(F)F)c4[nH]3)c2)COC1` [ABZ-2, N-(1-Methyl-1H-imidazol-2-yl)-2-(3-(3-((4-methyl-4H-1,2,4-triazol-3-yl)methyl)oxetan-3-yl)phenyl)-7-(trifluoromethyl)-1H-benzo[d]imidazole-5-carboxamide] is 10 to 50 µM; for `Cn1cnnc1-c1ccccc1-c1cccc(-c2nc3cc(C(=O)N4CCC5(CC5)C4)cc(C(F)(F)F)c3[nH]2)c1` [ACE-1, (2-(2′-(4-Methyl-4H-1,2,4-triazol-3-yl)-[1,1′-biphenyl]-3-yl)-7-(trifluoromethyl)-1H-benzo[d]imidazol-5-yl)(5-azaspiro[2.4]heptan-5-yl)methanone] it is 10 to 50 µM.
Turning to `Cn1cnnc1CC1(c2cccc(-c3cc(C(F)(F)F)cn(CCN4CC(O)C4)c3=O)c2)COC1` [ACH-5, 1-(2-(3-Hydroxyazetidin-1-yl)ethyl)-3-(3-(3-((4-methyl-4H-1,2,4-triazol-3-yl)methyl)oxetan-3-yl)phenyl)-5-(trifluoromethyl) pyridin-2(1H)-one], the IC50 was in the range of 10 to 50 µM.
Take `Cn1cnnc1CC1(c2cccc(-c3cc4cccc(C(F)(F)F)c4[nH]3)c2)COC1` [ACP-4, 2-(3-(3-((4-Methyl-4H-1,2,4-triazol-3-yl)methyl)oxetan-3-yl)phenyl)-7-(trifluoromethyl)-1H-indole]: the IC50 fell in the range of 10 to 50 µM.
Turning to `CCNc1cc(-c2c(-c3nncn3C)cnn2C)cc(-c2nc3ccc(Br)c(C(F)(F)F)c3[nH]2)n1` [ACT-3, 6-(6-Bromo-7-(trifluoromethyl)-1H-benzo[d]imidazol-2-yl)-N-ethyl-4-(1-methyl-4-(4-methyl-4H-1,2,4-triazol-3-yl)-1H-pyrazol-5-yl) pyridin-2-amine], the IC50 lay within 10 to 50 µM.
The same measure, in the same setting: the figure for `CCNc1cc(-c2c(-c3nncn3C)cnn2C)cc(-c2nc3ccc(C)c(C(F)(F)F)c3[nH]2)n1` [ACV-5, N-Ethyl-4-(1-methyl-4-(4-methyl-4H-1,2,4-triazol-3-yl)-1H-pyrazol-5-yl)-6-(6-methyl-7-(trifluoromethyl)-1H-benzo[d]imidazol-2-yl) pyridin-2-amine] is 10 to 50 µM.
For the compound `CCNc1cc(-c2c(-c3nncn3C)cnn2C)cc(-c2nc3cccc(C(F)(F)F)c3o2)n1` [ACW-2, N-Ethyl-4-(1-methyl-4-(4-methyl-4H-1,2,4-triazol-3-yl)-1H-pyrazol-5-yl)-6-(7-(trifluoromethyl)benzo[d]oxazol-2-yl)pyridin-2-amine], the IC50 fell in the range of 10 to 50 µM.
As for `CCNc1cc(-c2ccccc2-c2nncn2C)cc(-c2nc3cccc(C(F)(F)F)c3o2)n1` [AS-12, N-ethyl-4-(2-(4-methyl-4H-1,2,4-triazol-3-yl)phenyl)-6-(7-(trifluoromethyl)benzo[d]oxazol-2-yl)pyridin-2-amine], the IC50 was in the range of 10 to 50 µM.
The same measure, in the same setting: to `Cn1cnnc1-c1ccccc1-c1cccc(-c2nc3ccc(Br)c(C(F)(F)F)c3[nH]2)c1` [BB-1, 6-Bromo-2-(2′-(4-methyl-4H-1,2,4-triazol-3-yl)-[1,1′-biphenyl]-3-yl)-7-(trifluoromethyl)-1H-benzo[d]imidazole] belongs 10 to 50 µM; to `Cn1cnnc1-c1ccccc1-c1cccc(-c2nc3ccc(F)c(C(F)(F)F)c3[nH]2)c1` [BC-1, 6-Fluoro-2-(2′-(4-methyl-4H-1,2,4-triazol-3-yl)-[1,1′-biphenyl]-3-yl)-7-(trifluoromethyl)-1H-benzo[d]imidazole], 10 to 50 µM; to `CN1CCC(C(=O)Nc2ccc3nc(-c4cccc(-c5ccccc5-c5nncn5C)c4)[nH]c3c2C(F)(F)F)CC1` [BF-3, 1-Methyl-N-(2-(2′-(4-methyl-4H-1,2,4-triazol-3-yl)-[1,1′-biphenyl]-3-yl)-7-(trifluoromethyl)-1H-benzo[d]imidazol-6-yl)piperidine-4-carboxamide, Formic Acid], 10 to 50 µM.
Regarding `Cn1cnnc1-c1cc(F)ccc1-c1cccc(-c2nc3ccccc3[nH]2)c1` [CA-2, 2-(4′-Fluoro-2′-(4-methyl-4H-1,2,4-triazol-3-yl)-[1,1′-biphenyl]-3-yl)-1H-benzo[d]imidazole], the IC50 was in the range of 10 to 50 µM.
Still for that read-out and setting: to `Cn1cnnc1-c1ccccc1-c1cccc(-c2cc(C(F)(F)F)cn(C)c2=O)c1` [CG-4, 1-Methyl-3-(2′-(4-methyl-4H-1,2,4-triazol-3-yl)-[1,1′-biphenyl]-3-yl)-5-(trifluoromethyl)pyridin-2(1H)-one] belongs 10 to 50 µM; to `Cn1cnnc1-c1ccccc1-c1cccc(-c2cc(C(F)(F)F)c(C(=O)O)[nH]c2=O)c1` [CH-3, 5-(2′-(4-methyl-4H-1,2,4-triazol-3-yl)-[1,1′-biphenyl]-3-yl)-6-oxo-3-(trifluoromethyl)-1,6-dihydropyridine-2-carboxylic Acid], 10 to 50 µM.

In another test the target is T1, Recombinant human c-Cbl (aa 47-435) (Homo sapiens, UniProt P22681).
T1 sequence (P22681 47-435): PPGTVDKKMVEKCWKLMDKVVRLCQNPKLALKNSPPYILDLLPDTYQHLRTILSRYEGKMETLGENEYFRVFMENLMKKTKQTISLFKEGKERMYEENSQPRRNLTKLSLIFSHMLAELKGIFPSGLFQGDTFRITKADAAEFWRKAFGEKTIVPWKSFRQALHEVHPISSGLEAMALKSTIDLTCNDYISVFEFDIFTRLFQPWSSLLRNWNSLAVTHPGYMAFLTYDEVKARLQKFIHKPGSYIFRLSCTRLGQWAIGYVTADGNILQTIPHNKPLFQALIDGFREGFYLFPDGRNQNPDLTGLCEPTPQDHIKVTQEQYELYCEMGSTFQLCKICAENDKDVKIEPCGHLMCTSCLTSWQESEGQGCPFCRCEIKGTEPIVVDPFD
In words: c-Cbl Biochemical Assay (TR-FRET). Particulars: hc-Cbl Biochemical Assay (TR-FRET); read-out: TR-FRET hcCbl IC50.
On to `CC(Cc1nncn1C)c1cccc(-c2nc3ccc(C(=O)N4CCN(C)CC4)c(C(F)(F)F)c3[nH]2)c1` (racemic) [AY-5, (2-(3-(1-(4-Methyl-4H-1,2,4-triazol-3-yl)propan-2-yl)phenyl)-7-(trifluoromethyl)-1H-benzo[d]imidazol-6-yl)(4-methylpiperazin-1-yl)methanone], for which the IC50 lay in the range of 10 to 50 µM.
With `C=Cc1cc(C(F)(F)F)c2oc(-c3cccc(-c4ccc(F)cc4-c4nncn4C)c3)nc2c1` (racemic) [DL-1, 2-(4′-Fluoro-2′-(4-methyl-4H-1,2,4-triazol-3-yl)-[1,1′-biphenyl]-3-yl)-7-(trifluoromethyl)-5-vinylbenzo[d]oxazole], the IC50 is 1 to 10 µM.
In the case of `CCNc1cc(-c2c(-c3nncn3C)cnn2C)cc(-c2nc3cc(CN4CCC5(CC5)C4)cc(C(F)(F)F)c3o2)n1` [AAC-5, 6-(5-{5-Azaspiro[2.4]heptan-5-ylmethyl}-7-(trifluoromethyl)-1,3-benzoxazol-2-yl)-N-ethyl-4-[2-methyl-4-(4-methyl-1,2,4-triazol-3-yl)pyrazol-3-yl]pyridin-2-amine], the IC50 lay within 10 to 50 µM.
`C[C@@H]1CCCN(Cc2cc(C(F)(F)F)c3[nH]c(-c4cccc(-c5ccccc5-c5nncn5C)c4)nc3c2)C1` [AAJ-1, 2-[2′-(4-Methyl-1,2,4-triazol-3-yl)-[1,1′-biphenyl]-3-yl]-6-{[(3R)-3-methylpiperidin-1-yl]methyl}-4-(trifluoromethyl)-3H-1,3-benzodiazole]: the IC50 was 10 to 50 µM.
`Cn1cnnc1CC1(c2cccc(-c3nc4cc(Br)cc(C(F)(F)F)c4o3)c2)COC1` [AAK-1, 5-Bromo-2-(3-(3-((4-methyl-4H-1,2,4-triazol-3-yl)methyl)oxetan-3-yl)phenyl)-7-(trifluoromethyl)benzo[d]oxazole]: the IC50 lay within 10 to 50 µM.
`N#CC1(CN)CCCC1` [AHN-1]: the IC50 was less than 0.2 µM.
